Measurements as given in patent US8841456B2, “1,5-naphthyridine derivative or salt thereof” (FUJIFILM Corporation, priority 2011, dated 2014).
Where two headings read alike, the source gives them in different places.

Tests used:
human PI3Kα protein = target: T1, human PI3Kα protein (Homo sapiens, UniProt P42336); assay: PI3Kα enzyme assay (ADP-Glo kinase assay); format: biochemical; conditions: 3 nM PI3Kα, 50 μM PIP2, 100 μM ATP
T1 construct: purchased Carna Biosciences, Inc; host or cells: Baculovirus expression system
T1 sequence (P42336 whole entry): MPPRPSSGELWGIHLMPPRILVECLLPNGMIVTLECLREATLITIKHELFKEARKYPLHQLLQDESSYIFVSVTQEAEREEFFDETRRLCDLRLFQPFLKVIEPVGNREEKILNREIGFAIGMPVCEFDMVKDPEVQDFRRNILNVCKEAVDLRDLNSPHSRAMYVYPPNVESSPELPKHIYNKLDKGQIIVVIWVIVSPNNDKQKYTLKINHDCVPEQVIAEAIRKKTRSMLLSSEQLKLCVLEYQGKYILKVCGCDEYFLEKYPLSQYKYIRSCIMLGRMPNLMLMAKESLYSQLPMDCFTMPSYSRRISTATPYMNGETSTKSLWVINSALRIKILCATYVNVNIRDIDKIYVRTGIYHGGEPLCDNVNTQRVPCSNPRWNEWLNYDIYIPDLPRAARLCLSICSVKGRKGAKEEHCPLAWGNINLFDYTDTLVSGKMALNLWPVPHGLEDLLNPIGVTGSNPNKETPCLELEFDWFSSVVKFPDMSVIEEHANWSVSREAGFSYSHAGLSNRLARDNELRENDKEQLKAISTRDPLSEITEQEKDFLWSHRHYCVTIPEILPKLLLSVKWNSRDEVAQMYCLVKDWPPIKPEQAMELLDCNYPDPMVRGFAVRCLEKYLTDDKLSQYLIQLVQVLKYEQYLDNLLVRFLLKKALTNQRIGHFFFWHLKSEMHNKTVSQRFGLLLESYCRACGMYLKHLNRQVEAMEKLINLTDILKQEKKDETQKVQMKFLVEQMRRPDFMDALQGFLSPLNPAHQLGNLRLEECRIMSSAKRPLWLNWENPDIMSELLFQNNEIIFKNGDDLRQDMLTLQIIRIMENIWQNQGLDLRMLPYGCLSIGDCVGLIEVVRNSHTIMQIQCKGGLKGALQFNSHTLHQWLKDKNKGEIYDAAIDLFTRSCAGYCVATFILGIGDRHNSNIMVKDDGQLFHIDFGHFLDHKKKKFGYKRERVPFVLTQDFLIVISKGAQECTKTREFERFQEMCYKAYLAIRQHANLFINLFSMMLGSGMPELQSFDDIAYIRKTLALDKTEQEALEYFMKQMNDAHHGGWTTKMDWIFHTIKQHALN
T1 sequence (P27986 whole entry partner): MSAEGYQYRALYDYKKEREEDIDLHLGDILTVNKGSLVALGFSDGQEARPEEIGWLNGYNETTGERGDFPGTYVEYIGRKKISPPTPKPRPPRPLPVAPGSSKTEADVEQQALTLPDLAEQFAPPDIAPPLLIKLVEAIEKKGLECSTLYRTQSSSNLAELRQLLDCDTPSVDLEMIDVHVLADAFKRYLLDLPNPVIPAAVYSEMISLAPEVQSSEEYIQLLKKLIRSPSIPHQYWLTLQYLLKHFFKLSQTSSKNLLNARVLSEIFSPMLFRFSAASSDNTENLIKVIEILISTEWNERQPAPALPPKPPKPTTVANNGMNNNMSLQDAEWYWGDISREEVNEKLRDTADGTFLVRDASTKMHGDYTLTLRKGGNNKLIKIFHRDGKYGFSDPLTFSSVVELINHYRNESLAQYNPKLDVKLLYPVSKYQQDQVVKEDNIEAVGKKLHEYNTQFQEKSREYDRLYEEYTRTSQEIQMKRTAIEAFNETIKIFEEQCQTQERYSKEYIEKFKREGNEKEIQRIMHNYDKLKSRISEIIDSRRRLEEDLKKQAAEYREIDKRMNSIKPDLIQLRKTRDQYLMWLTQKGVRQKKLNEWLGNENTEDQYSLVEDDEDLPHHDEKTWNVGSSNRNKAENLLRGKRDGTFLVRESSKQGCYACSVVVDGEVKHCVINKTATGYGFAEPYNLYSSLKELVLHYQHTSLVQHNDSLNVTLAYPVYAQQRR
Procedure, shortened: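 Baculovirus-expressed biotinylated human PI3Kα (3 nM) preincubated 15 min with compound in Tris pH 7.5, MgCl2, BSA, then reacted 60 min at 25 °C with 50 μM PIP2 and 100 μM ATP. ADP quantified by ADP-Glo luminescence; IC50 calculated.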

[1] = target: T2, glutathione S-transferase (GST)-fusion human ERK2 protein (Homo sapiens, UniProt P28482); assay: ERK2 enzyme assay (LabChip mobility shift); format: biochemical; conditions: 2 nM ERK2, 4.25 μM FL-Peptide 8, 43 μM ATP
T2 construct: purchased Carna Biosciences, Inc; host or cells: E. coli expression system
T2 sequence (P28482 whole entry, the tested form may be a part): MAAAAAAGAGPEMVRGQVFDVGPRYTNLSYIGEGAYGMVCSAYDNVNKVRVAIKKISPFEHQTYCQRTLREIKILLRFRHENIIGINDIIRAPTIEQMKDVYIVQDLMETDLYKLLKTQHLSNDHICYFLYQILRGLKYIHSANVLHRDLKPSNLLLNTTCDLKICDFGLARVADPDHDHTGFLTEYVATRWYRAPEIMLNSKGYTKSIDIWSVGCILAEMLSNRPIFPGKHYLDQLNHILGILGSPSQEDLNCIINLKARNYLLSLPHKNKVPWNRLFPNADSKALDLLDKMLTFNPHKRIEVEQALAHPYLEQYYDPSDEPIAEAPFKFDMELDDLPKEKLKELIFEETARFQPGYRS
Procedure, shortened: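 GST-tagged human ERK2 from E. coli, at 2 nM, was preincubated 15 min at room temperature with compound in Hepes pH 7.5 with MgCl2, DTT and Brij35. The reaction ran 120 min at 25 °C with 4.25 μM FL-Peptide 8 and 43 μM ATP (final). Phosphopeptide fraction was measured by mobility-shift separation to give IC50.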

[2] = IC50 class, read-out: PI3Kα Inhibitory Activity
[3] = IC50 class, read-out: ERK2 Inhibitory Activity

| Structure (SMILES) | IC50 (human PI3Kα protein; [2]) [µM] | IC50 [1, 3] [µM] | IC50 (human PI3Kα protein; read-out: PI3Kα, IC50) [µM] | IC50 ([1]; read-out: ERK2, IC50) [µM] |
| --- | --- | --- | --- | --- |
| CN1CCN(CCCn2cc(-c3cnc4ccc(NC(=O)NC5(C)CCCC5)nc4c3)cn2)CC1 [Compound 0257] | < 0.1 | 0.1 to 1 |  |  |
| CS(=O)(=O)C1CCN(CCn2cc(-c3cnc4ccc(NC(=O)NC5CCCC5)nc4c3)cn2)CC1 [Compound 0218] | < 0.1 | < 0.1 |  |  |
| O=C(NCCC(F)(F)F)Nc1ccc2ncc(-c3cn[nH]c3)cc2n1 [Compound 0115] | < 0.1 | < 0.1 |  |  |
| O=C(Nc1ccc2ncc(-c3cn[nH]c3)cc2n1)NC1CC[C@H](O)C1 (stereo partly shown) [Compound 0091] | < 0.1 | < 0.1 |  |  |
| O=C(NCCCCN1CCCC1)Nc1ccc2ncc(-c3cn[nH]c3)cc2n1 [Compound 0177] | > 10 | 0.1 to 1 |  |  |
| CC1(NC(=O)Nc2ccc3ncc(N4CCOCC4)cc3n2)CCCC1 [Compound 0253] | < 0.1 | < 0.1 |  |  |
| CCCCCNC(=O)Nc1ccc2ncc(-c3cn[nH]c3)cc2n1 [Compound 0094] | < 0.1 | < 0.1 |  |  |
| C[C@@H](C[C@H](C)Oc1ccccc1)NC(=O)Nc1ccc2ncc(-c3cn[nH]c3)cc2n1 [Compound 0163] | 0.1 to 1 | 0.1 to 1 |  |  |
| O=C(NCC1CCCCO1)Nc1ccc2ncc(-c3cn[nH]c3)cc2n1 (stereo not shown) [Compound 0189] | 0.1 to 1 | < 0.1 |  |  |
| O=C(Nc1ccc2ncc(-c3cn[nH]c3)cc2n1)N[C@@H]1CC[C@H](CF)C1 [Compound 0200] | < 0.1 | < 0.1 |  |  |
| O=C(NCc1ccccn1)Nc1ccc2ncc(-c3cn[nH]c3)cc2n1 [Compound 0101] | 1 to 10 | < 0.1 |  |  |
| O=C(NCC1CCC(F)(F)CC1)Nc1ccc2ncc(-c3cn[nH]c3)cc2n1 [Compound 0113] | 0.1 to 1 | < 0.1 |  |  |
| O=C(Nc1ccc2ncc(-c3ccsc3)cc2n1)NC1CCCC1 [Compound 0118] | 0.1 to 1 | < 0.1 |  |  |
| C=CCNC(=O)Nc1ccc2ncc(-c3cn[nH]c3)cc2n1 [Compound 0056] | 0.1 to 1 | < 0.1 |  |  |
| O=C(NCCCN1CCOCC1)Nc1ccc2ncc(-c3cn[nH]c3)cc2n1 [Compound 0201] | 1 to 10 | 0.1 to 1 |  |  |
| COCCN(C)c1cnc2ccc(NC(=O)NC3CCCC3)nc2c1 [Compound 0026] | < 0.1 | 0.1 to 1 |  |  |
| O=C1CN(c2cnc3ccc(NC(=O)NC4CCCC4)nc3c2)CCN1 [Compound 0142] | < 0.1 | 0.1 to 1 |  |  |
| O=C(Nc1ccc2ncc(NC(=O)c3ccccc3)cc2n1)NC1CCCC1 [Compound 0134] | < 0.1 | 1 to 10 |  |  |
| CC(CCc1ccccc1)NC(=O)Nc1ccc2ncc(-c3cnn(CCCN4CCOCC4)c3)cc2n1 (stereo not shown) [Compound 0179] | < 0.1 | < 0.1 |  |  |
| O=C(Nc1ccc2ncc(-c3cn[nH]c3)cc2n1)NC1C[C@H]2CC[C@@H]1C2 (stereo partly shown) [Compound 0068] | < 0.1 | < 0.1 | 0.03 | 0.004 |
| CC(CCc1ccccc1)NC(=O)Nc1ccc2ncc(-c3cn[nH]c3)cc2n1 (stereo not shown) [Compound 0088] | < 0.1 | < 0.1 |  |  |
| CC(=O)OCCCCn1cc(-c2cnc3ccc(NC(=O)NC4CCCC4)nc3c2)cn1 [Compound 0249] | < 0.1 | < 0.1 |  |  |

| Structure (SMILES) | IC50 (human PI3Kα protein; [2]) [µM] | IC50 [1, 3] [µM] | IC50 (human PI3Kα protein; read-out: PI3Kα, IC50) [µM] | IC50 ([1]; read-out: ERK2, IC50) [µM] |
| --- | --- | --- | --- | --- |
| O=C(Nc1ccc2ncc(-c3cnn(CCCCN4C(=O)c5ccccc5C4=O)c3)cc2n1)NC1CCCC1 [Compound 0206] | < 0.1 | 0.1 to 1 |  |  |
| COc1cc(-c2cnc3ccc(NC(=O)NC4CCCC4)nc3c2)cnc1O [Compound 0015] | < 0.1 | < 0.1 |  |  |
| O=C(Nc1ccc2ncc(-c3cnn(C4CCNCC4)c3)cc2n1)NC1CCCC1 [Compound 0214] | < 0.1 | 0.1 to 1 |  |  |
| CC1(NC(=O)Nc2ccc3ncc(-c4cnn(CCCN5CCNCC5)c4)cc3n2)CCCC1 [Compound 0256] | < 0.1 | 0.1 to 1 |  |  |
| Cc1c(-c2cnn(C)c2)cnc2ccc(NC(=O)NC3CCCC3)nc12 [Compound 0237] | < 0.1 | < 0.1 |  |  |
| O=C(NCc1ccncc1)Nc1ccc2ncc(-c3cn[nH]c3)cc2n1 [Compound 0103] | 0.1 to 1 | 0.1 to 1 |  |  |
| Cc1nc2ccc(NC(=O)NC3CCCC3)nc2cc1-c1cnn(C)c1 [Compound 0236] | 0.1 to 1 | > 10 |  |  |
| O=C(Nc1ccc2ncc(-c3ccc4[nH]ncc4c3)cc2n1)NC1CCCC1 [Compound 0122] | < 0.1 | < 0.1 |  |  |
| O=C(NCCCCc1ccccc1)Nc1ccc2ncc(-c3cn[nH]c3)cc2n1 [Compound 0064] | < 0.1 | < 0.1 | 0.05 | < 0.003 |
| COCCCNC(=O)Nc1ccc2ncc(-c3cn[nH]c3)cc2n1 [Compound 0100] | 0.1 to 1 | < 0.1 |  |  |
| O=C(NCCCOc1ccccc1)Nc1ccc2ncc(-c3cn[nH]c3)cc2n1 [Compound 0104] | 0.1 to 1 | < 0.1 |  |  |
| CC(C)[C@@H](C)NC(=O)Nc1ccc2ncc(-c3cn[nH]c3)cc2n1 [Compound 0082] | < 0.1 | < 0.1 |  |  |
| C[C@H](NC(=O)Nc1ccc2ncc(-c3cn[nH]c3)cc2n1)C1CCCC1 [Compound 0199] | 0.1 to 1 | < 0.1 |  |  |
| C[C@H](C[C@@H](C)Oc1ccccc1)NC(=O)Nc1ccc2ncc(-c3cn[nH]c3)cc2n1 [Compound 0161] | 0.1 to 1 | < 0.1 |  |  |
| CN1CCC(NC(=O)Nc2ccc3ncc(-c4cn[nH]c4)cc3n2)CC1 [Compound 0078] | 1 to 10 | 0.1 to 1 |  |  |
| O=C(NCC12CC3CC(CC(C3)C1)C2)Nc1ccc2ncc(-c3cn[nH]c3)cc2n1 [Compound 0187] | 1 to 10 | < 0.1 |  |  |
| O=C(NCCCCc1ccccc1F)Nc1ccc2ncc(-c3cnn(CCCN4CCOCC4)c3)cc2n1 [Compound 0183] | < 0.1 | < 0.1 |  |  |
| COc1ccc(Nc2cnc3ccc(NC(=O)NC4CCCC4)nc3c2)cc1 [Compound 0028] | < 0.1 | > 10 |  |  |
| O=C(Nc1ccc2ncc(-c3ccc(F)cc3)cc2n1)NC1CCCC1 [Compound 0020] | 0.1 to 1 | < 0.1 |  |  |
| CN(C)Cc1nn(C)cc1-c1cnc2ccc(NC(=O)NC3CCCC3)nc2c1 [Compound 0217] | < 0.1 | 0.1 to 1 |  |  |
| O=C(NCC1C[C@@H]2CC[C@H]1C2)Nc1ccc2ncc(-c3cnn(CCN4CCNCC4)c3)cc2n1 (stereo partly shown) [Compound 0252] | 0.1 to 1 | 0.1 to 1 |  |  |

Now from value to molecule:

| IC50 (human PI3Kα protein; [2]) [µM] | IC50 [1, 3] [µM] | IC50 (human PI3Kα protein; read-out: PI3Kα, IC50) [µM] | IC50 ([1]; read-out: ERK2, IC50) [µM] | Structure (SMILES) |
| --- | --- | --- | --- | --- |
| < 0.1 | 0.1 to 1 |  |  | CCN1CCC(n2cc(-c3cnc4ccc(NC(=O)NC5CCCC5)nc4c3)cn2)CC1 [Compound 0230] |
| < 0.1 | < 0.1 |  |  | CC(C)CC(C)NC(=O)Nc1ccc2ncc(-c3cn[nH]c3)cc2n1 (stereo not shown) [Compound 0087] |
| < 0.1 | > 10 |  |  | COc1cccc(Nc2cnc3ccc(NC(=O)NC4CCCC4)nc3c2)c1 [Compound 0029] |
| 0.1 to 1 | 0.1 to 1 |  |  | COCC1(NC(=O)Nc2ccc3ncc(-c4cn[nH]c4)cc3n2)CCC1 [Compound 0196] |
| < 0.1 | 0.1 to 1 |  |  | O=C(Nc1ccc2ncc(-c3cnn(C4CNC4)c3)cc2n1)NC1CCCC1 [Compound 0143] |
| 1 to 10 | < 0.1 |  |  | O=C(Nc1ccc2ncc(-c3cn[nH]c3)cc2n1)N[C@@H]1CCNC1 [Compound 0073] |
| < 0.1 | 0.1 to 1 |  |  | CC(C)N1CCC(n2cc(-c3cnc4ccc(NC(=O)NC5CCCC5)nc4c3)cn2)CC1 [Compound 0231] |
| 0.1 to 1 | < 0.1 |  |  | O=C(NCCOCc1ccccc1)Nc1ccc2ncc(-c3cn[nH]c3)cc2n1 [Compound 0107] |
| < 0.1 | < 0.1 |  |  | C=Cn1cc(-c2cnc3ccc(NC(=O)NC4CCCC4)nc3c2)cn1 [Compound 0019] |
| 0.1 to 1 | 1 to 10 |  |  | CC(C)(C)OC(=O)C1CCN(c2cnc3ccc(NC(=O)NC4CCCC4)nc3c2)CC1 [Compound 0149] |
| < 0.1 | < 0.1 |  |  | O=C(Nc1ccc2ncc(-c3ccc(O)cc3)cc2n1)NC1CCCC1 [Compound 0034] |
| 1 to 10 | 1 to 10 |  |  | O=C(Nc1ccc2ncc(CN3CCOCC3)cc2n1)NC1CCCC1 [Compound 0132] |
| < 0.1 | < 0.1 |  |  | CN(C)CCCn1cc(-c2cnc3ccc(NC(=S)NC4CCCC4)nc3c2)cn1 [Compound 0221] |
| < 0.1 | 0.1 to 1 |  |  | CN(C)CCCn1cc(-c2cnc3ccc(NC(=O)NC4CCCC4)nc3c2)cn1 [Compound 0210] |
| < 0.1 | < 0.1 |  |  | CS(=O)(=O)Nc1cccc(-c2cnc3ccc(NC(=O)NC4CCCC4)nc3c2)c1 [Compound 0035] |
| 0.1 to 1 | 0.1 to 1 |  |  | NC(=O)c1cnc2ccc(NC(=O)NC3CCCC3)nc2c1 [Compound 0130] |
| < 0.1 | < 0.1 |  |  | CC(C)(C)NC(=O)Nc1ccc2ncc(-c3cnn(CCCN4CCNCC4)c3)cc2n1 [Compound 0164] |
| 0.1 to 1 | < 0.1 |  |  | O=C(NC[C@@H]1CCCO1)Nc1ccc2ncc(-c3cn[nH]c3)cc2n1 [Compound 0193] |
| < 0.1 | < 0.1 |  |  | COc1ccccc1CCCCNC(=O)Nc1ccc2ncc(-c3cn[nH]c3)cc2n1 [Compound 0168] |
| < 0.1 | 0.1 to 1 |  |  | O=C(Nc1ccc2ncc(-c3cnn(C4CCNC4)c3)cc2n1)NC1CCCC1 (stereo not shown) [Compound 0144] |
